The source of these data is US20230340607A1, “COMPOSITIONS AND METHODS FOR DETECTING GENE FUSIONS OF RAD51AP1 AND DYRK4 AND FOR DIAGNOSING AND TREATING CANCER” (UNIVERSITY OF PITTSBURGH-OF THE COMMONWEALTH SYSTEM OF …, priority 2020, published 2023).

Assay type in all cases: cell-based, human
The test system of one assay is MDAMB361 cells. Briefly: Clonogenic assay, MDAMB361 cells. Here is the method: (§1) Since MDAMB361 is a HER2 positive cell line we also assessed the therapeutic effect of lapatinib treatment alone or in combination with trametinib.
(§2) Clonogenic assay. The E9-E2 and wtRAD51AP1 expressing T47D cells were seeded at a density of 1000 cells/well in a 6-well plate with or without 200 ng/ml doxycycline treatment and incubated for 14-21 days. The colonies were stained with 0.5% crystal violet in 50% ethanol and counted using GelCount (Oxford Optronix Ltd.). The Trametinib (MEKi) and Lapatinib (EGFR/HER2 inhibitor) used for in vitro therapeutic studies were purchased from Selleck Chemicals. To test their therapeutic effects in the engineered T47D cells and other cell lines, cells (5000-10000, depending on the doubling time) were plated in 24-well for 24 hours prior to treatment with growth media containing trametinib, lapatinib or DMSO was replaced every 4 days for approximately 2 weeks. After this, cells were stained with 0.5% crystal violet in water containing 50% ethanol for 15 minutes at room temperature. The area and intensity of each well was measured using Image J. with Colony Area Plug In.

Assay [1] has as its system T47D cells inducibly expressing RAD51AP1-DYRK4 (E9-E2). The experiment in a line: Clonogenic assay, T47D cells inducibly expressing RAD51AP1-DYRK4 (E9-E2). Here is the method: (§3) Next, the sensitivity of the engineered T47D cells inducibly expressing RAD51AP1-DYRK4 or wtRAD51AP1 to MEK inhibition was assessed. The first FDA approved MEK inhibitor currently under phase II clinical trial for triple negative breast cancer (NCI 9455) called Trametinib was used for MEK inhibition. MEK inhibition requires longer term drug exposure to exert therapeutic effect (Xue, Z. et al. (2018)). Therefore, clonogenic assays on the T47D models were performed to assess the cell viability following trametinib treatment in the presence or absence of doxycycline induction. Since T47D cells express EGFR, the cells were also treated with lapatinib to observe the combinatory effect.
as §2

In assay [2] the test system is MAP3K1 protein level and JNK-JUN phosphorylation. The experiment in a line: Western blot of engineered T47D cells after trametinib: MAP3K1/JNK/JUN. To be noted: 0.5uM trametinib, 24 hours. The protocol: (§4) Compensative HER2/PI3K/AKT and MAP3K1/JNK/JUN activation has been reported to mediate resistance to MEK inhibitors (Avivar-Valderas, A. et al. (2018); Maher, C.A. et al. (2009)). We thus examined if RAD51AP1-DYRK4 and wtRAD51AP1 differentially modulate these survival pathways following MEK inhibition. To test this, we treated the engineered T47D cells with 0.5uM of trametinib or vehicle for 24 hours, to assess the early signaling changes following trametinib treatment. […] In contrast, this compensatory signaling was activated in T47D cells overexpressing wtRAD51AP1 following MEK inhibition (FIG. 7A). In addition, RAD51AP1-DYRK4 also repressed MAP3K1 protein level and JNK-JUN phosphorylation under MEK inhibition.
(§5) Western blot. For immunoblot analysis, E9-E2 and wtRAD51AP1 expression was induced in transduced T47D cells with 200 ng/ml doxycycline for one week. Total proteins were extracted by homogenizing the cells in RIPA Lysis Buffer (Sigma-Aldrich), supplemented with complete protease inhibitor cocktail tablet (Roche Diagnostics), 50 mM beta-Glycerophosphate, 1 mM sodium orthovanadate, 1 mM sodium fluoride, and 1 mM PMSF. Thirty micrograms of protein extracts were denatured in sample buffer, separated by SDS-PAGE, and transferred onto a nitrocellulose membrane (Invitrogen). The membranes were blocked and incubated overnight at 4° C. with primary antibodies. […]

Another assay relates to HCC1937 cells. The experiment in a line: Clonogenic assay, HCC1937 cells. To be noted: HCC1937 overexpressing RAD51AP1-DYRK4, compared to MCF7, HCC38, HCC1428, and ZR-75-30 cell lines. Here is the method:
as §1, §2

Assay [3] relates to HER2/PI3K/AKT/Raptor activation. Briefly: Western blot of engineered T47D cells after trametinib: HER2/PI3K/AKT/Raptor. To be noted: 0.5uM trametinib, 24 hours. The protocol: as §4, §5
The subject of assay [4] is T47D cells inducibly expressing wtRAD51AP1. The experiment in a line: Clonogenic assay, T47D cells inducibly expressing wtRAD51AP1. To be noted: induction of wtRAD51AP1 expression. Here is the method:
as §3
Clonogenic assay. The E9-E2 and wtRAD51AP1 expressing T47D cells were seeded at a density of 1000 cells/well in a 6-well plate with or without 200 ng/ml doxycycline treatment and incubated for 14-21 days. The colonies were stained with 0.5% crystal violet in 50% ethanol and counted using GelCount (Oxford Optronix Ltd.). The Trametinib (MEKi) and Lapatinib (EGFR/HER2 inhibitor) used for in vitro therapeutic studies were purchased from Selleck Chemicals. […] The area and intensity of each well was measured using Image J. with Colony Area Plug In.

Setting [5] is: T47D cells overexpressing RAD51AP1-DYRK4.

Entries after “also recorded” stand apart in the source; their conditions may differ.

For `CS(=O)(=O)CCNCc1ccc(-c2ccc3ncnc(Nc4ccc(OCc5cccc(F)c5)c(Cl)c4)c3c2)o1` [lapatinib, Lapatinib], the “therapeutic effect of lapatinib alone (clonogenic assay)” value with MDAMB361 cells (MDAMB361, HER2 positive) is “highly resistant; also recorded: resistance”. The “therapeutic effect of lapatinib in combination with trametinib (clonogenic assay)” value with MDAMB361 cells (MDAMB361, combination with trametinib) is reported as “highly sensitive”. Besides, the “therapeutic benefit of lapatinib alone (clonogenic assay)” value in assay [1] (engineered T47D cells) is recorded as “did not result in additional therapeutic benefits; also recorded: did not show additional therapeutic benefits”. The “therapeutic benefit of lapatinib in combination with trametinib (clonogenic assay)” value in assay [1] (engineered T47D cells, combination with trametinib) is on record as “did not result in additional therapeutic benefits; also recorded: did not show additional therapeutic benefits”.

Regarding `CC(=O)Nc1cccc(-n2c(=O)n(C3CC3)c(=O)c3c(Nc4ccc(I)cc4F)n(C)c(=O)c(C)c32)c1` [trametinib], the “sensitivity to trametinib treatment (clonogenic assay)” value is reported as “markedly higher sensitivity” in the assay with MDAMB361 cells (MDAMB361 overexpressing RAD51AP1-DYRK4, compared to MCF7, HCC38, HCC1428, and ZR-75-30 cell lines); “markedly higher sensitivity” in the assay on HCC1937 cells. Moreover, in assay [2] (T47D cells ectopically expressing wtRAD51AP1), the “MAP3K1/JNK/JUN signaling following MEK inhibition (Western blot)” value was “did not observe activation”. For the same molecule, the “MAP3K1 protein level and JNK-JUN phosphorylation under MEK inhibition (Western blot)” value in assay [2] (setting [5]) is “repressed”. Further, in assay [1] (T47D cells, doxycycline-induced ectopic RAD51AP1-DYRK4 (E9-E2) expression vs absence of induction), the “sensitivity to trametinib (clonogenic assay, cell viability)” value is on record as “significantly increased sensitivity”. Moreover, in assay [3] (setting [5]), the “HER2/PI3K/AKT/Raptor activation under MEK inhibition (Western blot)” value is recorded as “attenuates”. Also, the “compensatory HER2/PI3K/AKT/Raptor signaling following MEK inhibition (Western blot)” value in assay [3] (T47D cells overexpressing wtRAD51AP1) is “activated; also recorded: compensatory activation”. The “increased sensitivity to trametinib (clonogenic assay, cell viability)” value is given as “not observed” in assay [4] and “not” in assay [4] (listed as Trametinib).
